# In ChEMBL document CHEMBL1122788, “Quantitative relationships between alpha-adrenergic activity and binding affinity of alpha-adrenoceptor agonists and antagonists” (J Med Chem, 1984):
# What was measured:
# [1] = biological target: Adrenergic receptor alpha-2 (Homo sapiens) (UniProt P08913+P18825+P18089); conditions: Oryctolagus cuniculus
# [2] = biological target: T1, Adrenergic receptor alpha-2 (Rattus norvegicus, UniProt P22086+P19328+P22909); assay: Antagonist activity against B-HT 933-induced alpha-2-adrenoceptor-mediated vasoconstriction in pithed normotensive rats; type: functional
# T1 sequence (P22086 whole entry): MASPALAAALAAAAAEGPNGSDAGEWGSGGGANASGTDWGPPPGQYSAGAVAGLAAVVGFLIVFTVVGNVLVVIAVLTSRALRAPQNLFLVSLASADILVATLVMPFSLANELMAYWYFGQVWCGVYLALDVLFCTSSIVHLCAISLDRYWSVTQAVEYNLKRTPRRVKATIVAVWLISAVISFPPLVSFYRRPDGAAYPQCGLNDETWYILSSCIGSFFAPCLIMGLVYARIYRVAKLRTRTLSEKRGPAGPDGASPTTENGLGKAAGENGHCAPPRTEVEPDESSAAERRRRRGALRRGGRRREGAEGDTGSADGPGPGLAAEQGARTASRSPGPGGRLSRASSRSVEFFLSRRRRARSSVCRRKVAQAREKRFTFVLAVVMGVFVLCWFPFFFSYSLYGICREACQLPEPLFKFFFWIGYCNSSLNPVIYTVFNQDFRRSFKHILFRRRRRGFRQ
# T1 sequence (P19328 whole entry): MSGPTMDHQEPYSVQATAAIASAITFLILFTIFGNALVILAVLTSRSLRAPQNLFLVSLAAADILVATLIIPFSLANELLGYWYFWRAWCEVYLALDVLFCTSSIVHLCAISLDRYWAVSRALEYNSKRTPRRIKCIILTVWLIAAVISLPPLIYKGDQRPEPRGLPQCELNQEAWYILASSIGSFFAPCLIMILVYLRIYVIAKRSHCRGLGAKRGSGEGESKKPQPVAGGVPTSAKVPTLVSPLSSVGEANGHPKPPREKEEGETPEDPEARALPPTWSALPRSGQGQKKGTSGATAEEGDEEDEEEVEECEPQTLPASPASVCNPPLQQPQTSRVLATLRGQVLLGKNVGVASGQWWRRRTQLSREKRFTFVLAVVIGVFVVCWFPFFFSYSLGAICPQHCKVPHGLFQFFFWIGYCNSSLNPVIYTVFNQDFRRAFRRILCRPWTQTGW
# T1 sequence (P22909 whole entry): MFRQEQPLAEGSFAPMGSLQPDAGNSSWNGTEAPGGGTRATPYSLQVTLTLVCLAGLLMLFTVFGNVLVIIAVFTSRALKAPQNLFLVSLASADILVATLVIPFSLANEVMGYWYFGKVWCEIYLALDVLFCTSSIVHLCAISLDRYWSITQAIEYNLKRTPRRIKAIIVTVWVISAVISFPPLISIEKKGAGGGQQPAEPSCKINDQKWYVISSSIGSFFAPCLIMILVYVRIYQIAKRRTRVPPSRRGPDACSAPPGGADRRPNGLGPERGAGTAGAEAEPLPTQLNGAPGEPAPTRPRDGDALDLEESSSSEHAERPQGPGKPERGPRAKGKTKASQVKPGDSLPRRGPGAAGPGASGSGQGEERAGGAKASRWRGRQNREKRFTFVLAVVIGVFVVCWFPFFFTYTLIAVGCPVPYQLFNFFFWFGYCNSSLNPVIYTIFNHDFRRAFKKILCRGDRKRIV
# [3] = species on record: Oryctolagus cuniculus; assay: Index of alpha1/alpha2 adrenoceptor antagonist selectivity at pre and postsynaptic sites in vitro.; type: functional
# [4] = biological target: T2, Adrenergic receptor alpha-1 (Homo sapiens, UniProt P35348+P25100+P35368); assay: In vitro antagonist activity against (-)-phenylephrine or (-)-norepinephrine-induced alpha1-adrenoceptor-mediated vasoconstriction of rabbit isolated pulmonary artery.; type: functional, Oryctolagus cuniculus; conditions: target entry is the homologue from another species
# T2 sequence (P35348 whole entry): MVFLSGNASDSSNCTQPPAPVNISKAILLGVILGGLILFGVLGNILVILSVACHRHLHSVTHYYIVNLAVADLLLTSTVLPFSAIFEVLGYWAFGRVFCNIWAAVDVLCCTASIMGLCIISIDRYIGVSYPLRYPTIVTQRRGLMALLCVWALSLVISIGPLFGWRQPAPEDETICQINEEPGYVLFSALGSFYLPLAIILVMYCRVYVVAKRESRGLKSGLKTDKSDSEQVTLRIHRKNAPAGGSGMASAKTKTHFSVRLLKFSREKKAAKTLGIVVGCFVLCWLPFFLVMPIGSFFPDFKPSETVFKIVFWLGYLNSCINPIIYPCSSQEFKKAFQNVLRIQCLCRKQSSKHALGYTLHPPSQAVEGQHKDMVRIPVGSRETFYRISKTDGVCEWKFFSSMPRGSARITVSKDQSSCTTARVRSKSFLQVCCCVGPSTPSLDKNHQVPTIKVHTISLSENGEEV
# T2 sequence (P25100 whole entry): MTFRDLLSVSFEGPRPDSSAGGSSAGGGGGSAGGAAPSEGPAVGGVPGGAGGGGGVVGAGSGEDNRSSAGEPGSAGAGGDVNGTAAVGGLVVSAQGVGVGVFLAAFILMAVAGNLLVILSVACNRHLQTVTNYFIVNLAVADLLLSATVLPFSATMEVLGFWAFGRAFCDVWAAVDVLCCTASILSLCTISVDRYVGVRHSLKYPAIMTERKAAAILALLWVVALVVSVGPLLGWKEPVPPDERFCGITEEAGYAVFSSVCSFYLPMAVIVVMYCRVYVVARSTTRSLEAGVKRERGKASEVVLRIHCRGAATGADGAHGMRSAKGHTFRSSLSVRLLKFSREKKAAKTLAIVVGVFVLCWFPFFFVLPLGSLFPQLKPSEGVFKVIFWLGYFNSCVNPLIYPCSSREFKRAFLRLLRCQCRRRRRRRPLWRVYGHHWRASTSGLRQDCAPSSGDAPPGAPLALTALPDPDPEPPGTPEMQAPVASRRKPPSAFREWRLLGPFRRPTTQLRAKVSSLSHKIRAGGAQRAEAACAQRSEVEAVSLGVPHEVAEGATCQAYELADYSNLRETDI
# T2 sequence (P35368 whole entry): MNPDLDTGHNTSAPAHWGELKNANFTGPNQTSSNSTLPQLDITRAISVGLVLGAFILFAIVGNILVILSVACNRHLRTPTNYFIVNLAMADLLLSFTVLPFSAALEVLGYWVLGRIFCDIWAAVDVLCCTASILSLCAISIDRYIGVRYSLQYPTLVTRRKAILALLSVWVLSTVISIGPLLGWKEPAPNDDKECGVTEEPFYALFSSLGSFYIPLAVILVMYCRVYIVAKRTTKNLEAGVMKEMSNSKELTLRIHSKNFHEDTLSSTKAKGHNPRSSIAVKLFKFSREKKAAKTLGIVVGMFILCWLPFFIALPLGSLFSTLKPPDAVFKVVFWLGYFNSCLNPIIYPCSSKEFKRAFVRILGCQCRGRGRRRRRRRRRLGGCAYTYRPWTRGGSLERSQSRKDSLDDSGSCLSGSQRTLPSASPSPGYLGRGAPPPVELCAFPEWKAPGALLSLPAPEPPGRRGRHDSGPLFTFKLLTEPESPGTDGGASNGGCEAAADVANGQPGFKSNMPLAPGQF
# [5] = biological target: T1, Adrenergic receptor alpha-2; assay: Inhibition of specific [3H]clonidine binding (0.4 nM) to rat brain membranes alpha-2 adrenergic receptor; type: cell membranes, Membrane
Structure (SMILES),pC30 [1],pA2 [2],Selectivity index [3],pA2 [4],IC50 [5] [nM]
C=CCN1Cc2ccccc2-c2ccccc2C1 [AZAPETINE],5.89,4.88,1.08,6.96,1300
CN1C[C@H](C(=O)N[C@]2(C)O[C@@]3(O)[C@@H]4CCCN4C(=O)[C@H](Cc4ccccc4)N3C2=O)C[C@@H]2c3cccc4[nH]cc(c34)C[C@H]21 [DIHYDROERGOTAMINE],,7.25,,7.55,3.7
